Data published in patent US7576222B2, “Alkynyl-containing tryptophan derivative inhibitors of TACE/matrix metalloproteinase” (priority 2004, dated 2009).

Each compound was assayed against T1, catalytic domain of the recombinant TACE protein (Homo sapiens, UniProt P78536) (assay: TACE FRET assay using TACE cat). Details: not given.
T1 construct: The catalytic domain of the recombinant TACE protein was expressed and purified; made in house
Type: biochemical
Description: TACE FRET Assay Using TACE Cat
“K” is the IC50. Generally, “n” and “B” are floated, noting that n (Hill slope) should be close to 1 and B (background offset) to 0.
Pro-TNF-α substrate peptide Abz-[…]-Dpa (AnaSpec, San Jose, Calif., WARC-1) was prepared as a 2 mM stock solution in the TACE assay buffer (50 mM Tris-HCl, pH 7.4, 25 mM NaCl, 4% Glycerol, 0.005% Brij 35). The catalytic domain of the recombinant TACE protein was expressed and purified. The TACE protein (1 ug/ml) was pretreated with the inhibitors at various concentrations for 10 min. at room temperature. The reaction was initiated by the addition of the substrate peptide. […] The initial rate (slope) of the reaction was determined using a fluorescence plate reader (Molecular Devices, Spectra Max Gemini XS).

T1 sequence (P78536 223-474 limits assumed): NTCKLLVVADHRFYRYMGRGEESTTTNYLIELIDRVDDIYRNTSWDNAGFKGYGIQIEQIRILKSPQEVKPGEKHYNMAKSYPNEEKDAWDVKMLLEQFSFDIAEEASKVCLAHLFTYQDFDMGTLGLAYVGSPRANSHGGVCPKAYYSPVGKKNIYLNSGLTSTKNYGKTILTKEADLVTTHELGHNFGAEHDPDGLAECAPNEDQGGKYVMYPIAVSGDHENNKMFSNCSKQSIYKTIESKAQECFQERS

With `CC#CCOc1ccc(S(=O)(=O)N[C@@H](Cc2c(C)n(Cc3ccc(C#N)cc3)c3ccc(OC)cc23)C(=O)O)cc1` [Example 205, N-{[4-(but-2-ynyloxy)phenyl]sulfonyl}-1-(4-cyanobenzyl)-5-methoxy-2-methyltryptophan] as the compound, how does the IC50 read?
The IC50 was 0.47 µM.

`CC#CCOc1ccc(S(=O)(=O)N[C@@H](Cc2c[nH]c3ccc(O)cc23)C(=O)O)cc1` [Example 5, N-{[4-(but-2-ynyloxy)phenyl]sulfonyl}-5-hydroxytryptophan] was tested. Which IC50 did it give?
The IC50 was 1.61 µM.

`CC#CCOc1ccc(S(=O)(=O)N[C@@H](Cc2cn(Cc3ccccc3F)c3ccc(OC)cc23)C(=O)O)cc1` [Example 58, N-{[4-(but-2-ynyloxy)phenyl]sulfonyl}-1-(2-fluorobenzyl)-5-methoxytryptophan] was tested. Which IC50 did it give?
The IC50 was 2.24 µM.

Which IC50 does the source give for `CC#CCOc1ccc(S(=O)(=O)N[C@@H](Cc2cn(Cc3cccc(C(F)(F)F)c3)c3ccc(OC)cc23)C(=O)O)cc1` [Example 56, N-{[4-(but-2-ynyloxy)phenyl]sulfonyl}-5-methoxy-1-[3-(trifluoromethyl)benzyl]tryptophan] here?
The IC50 was 2.07 µM.

For `CC#CCOc1ccc(S(=O)(=O)N[C@@H](Cc2c(C)n(Cc3ccccc3C(F)(F)F)c3ccc(OC)cc23)C(=O)O)cc1` [Example 193, N-{[4-(but-2-ynyloxy)phenyl]sulfonyl}-5-methoxy-2-methyl-1-[2-(trifluoromethyl)benzyl]tryptophan], which IC50 is on record?
The IC50 was 0.45 µM.

`CC#CCOc1ccc(S(=O)(=O)N[C@@H](Cc2cn(Cc3cccc(OC)c3)c3ccc(OC)cc23)C(=O)O)cc1` [Example 52, N-{[4-(but-2-ynyloxy)phenyl]sulfonyl}-5-methoxy-1-(3-methoxybenzyl)tryptophan] was tested. Which IC50 did it give?
The IC50 was 2.24 µM.

With `CC#CCOc1ccc(S(=O)(=O)N[C@@H](Cc2c[nH]c3cc(F)ccc23)C(=O)O)cc1` [Example 7, N-{[4-(but-2-ynyloxy)phenyl]sulfonyl}-6-fluorotryptophan] as the compound, how does the IC50 read?
Its IC50 is 2.96 µM.

`CC#CCOc1ccc(S(=O)(=O)N[C@@H](Cc2c(C)n(Cc3ccccc3F)c3ccc(OC)cc23)C(=O)O)cc1` [Example 197, N-{[4-(but-2-ynyloxy)phenyl]sulfonyl}-1-(2-fluorobenzyl)-5-methoxy-2-methyltryptophan] was tested. Which IC50 did it give?
The IC50 was 0.3 µM.

`CC#CCOc1ccc(S(=O)(=O)N[C@@H](Cc2c(C)n(Cc3cccc(C#N)c3)c3ccc(OC)cc23)C(=O)O)cc1` [Example 204, N-{[4-(but-2-ynyloxy)phenyl]sulfonyl}-1-(3-cyanobenzyl)-5-methoxy-2-methyltryptophan] was tested. Which IC50 did it give?
Its IC50 is 0.48 µM.

Which IC50 does the source give for `CC#CCOc1ccc(S(=O)(=O)N[C@@H](Cc2c(C)n(Cc3cccc(F)c3)c3ccc(OC)cc23)C(=O)O)cc1` [Example 198, N-{[4-(but-2-ynyloxy)phenyl]sulfonyl}-1-(3-fluorobenzyl)-5-methoxy-2-methyltryptophan] here?
The IC50 was 0.34 µM.

Same assay, conditions: TACE FRET assay, catalytic domain of recombinant TACE; read-out: TACE IC50

For `CC#CCOc1ccc(S(=O)(=O)N[C@@H](Cc2cn(Cc3ccc(OC)cc3)c3ccccc23)C(=O)O)cc1` [Example 19, N-{[4-(but-2-ynyloxy)phenyl]sulfonyl}-1-(4-methoxybenzyl)-L-tryptophan], which IC50 is on record?
Its IC50 is 1.19 µM.

With `CC#CCOc1ccc(S(=O)(=O)N[C@H](Cc2cn(C(=O)OC(C)(C)C)c3ccccc23)C(=O)O)cc1` [Example 220, 1-(tert-butoxycarbonyl)-N-{[4-(but-2-ynyloxy)phenyl]sulfonyl}-D-tryptophan] as the compound, how does the IC50 read?
The IC50 was 3.67 µM.

Same assay, conditions: read-out: TACE Inhibition (%)

Which inhibition at 1 µM does the source give for `CC#CCOc1ccc(S(=O)(=O)N[C@@H](Cc2cn(Cc3ccccc3F)c3ccc(C(=O)O)cc23)C(=O)O)cc1` [Example 115, N-{[4-(but-2-ynyloxy)phenyl]sulfonyl}-5-carboxy-1-(2-fluorobenzyl)tryptophan] here?
Its inhibition at 1 µM is 4.29%.

For `CC#CCOc1ccc(S(=O)(=O)N[C@@H](Cc2cn(Cc3ccccc3)c3ccc(C(=O)O)cc23)C(=O)O)cc1` [Example 103, 1-benzyl-N-{[4-(but-2-ynyloxy)phenyl]sulfonyl}-5-carboxytryptophan], which inhibition at 1 µM is on record?
Its inhibition at 1 µM is 6.16%.

For `CC#CCOc1ccc(S(=O)(=O)N[C@@H](Cc2cn(Cc3ccccc3C(F)(F)F)c3ccc(C(=O)O)cc23)C(=O)O)cc1` [Example 111, N-{[4-(but-2-ynyloxy)phenyl]sulfonyl}-5-carboxy-1-[2(trifluoromethyl)benzyl]tryptophan], which inhibition at 1 µM is on record?
The inhibition at 1 µM was 10.7%.

Which inhibition at 1 µM does the source give for `CC#CCOc1ccc(S(=O)(=O)N[C@@H](Cc2cn(CCCCC)c3ccc(C(=O)O)cc23)C(=O)O)cc1` [Example 130, N-{[4-(but-2-ynyloxy)phenyl]sulfonyl}-5-carboxy-1-pentyltryptophan] here?
The inhibition at 1 µM was -5.71%.

For `CC#CCOc1ccc(S(=O)(=O)N[C@@H](Cc2c(C)n(Cc3ccccc3OC)c3ccccc23)C(=O)O)cc1` [Example 146, N-{[4-(but-2-ynyloxy)phenyl]sulfonyl}-1-(2-methoxybenzyl)-2-methyltryptophan], which inhibition at 1 µM is on record?
The inhibition at 1 µM was 35.9%.

With `CC#CCOc1ccc(S(=O)(=O)N[C@@H](Cc2cn(Cc3ccccc3OC)c3ccc(Cl)cc23)C(=O)O)cc1` [Example 74, N-{[4-(but-2-ynyloxy)phenyl]sulfonyl}-5-chloro-1-(2-methoxybenzyl)tryptophan] as the compound, how does the inhibition at 1 µM read?
The inhibition at 1 µM was 15%.

How did the inhibition at 1 µM turn out when `CC#CCOc1ccc(S(=O)(=O)N[C@@H](Cc2c(C)n(Cc3ccccc3)c3ccc(Cl)cc23)C(=O)O)cc1` [Example 88, 1-benzyl-N-{[4-(but-2-ynyloxy)phenyl]sulfonyl}-5-chloro-2-methyltryptophan] was run?
Its inhibition at 1 µM is 62.8%.

Which inhibition at 1 µM does the source give for `CC#CCOc1ccc(S(=O)(=O)N[C@@H](Cc2c(C)n(Cc3ccc(C(C)C)cc3)c3ccc(OC)cc23)C(=O)O)cc1` [Example 202, N-{[4-(but-2-ynyloxy)phenyl]sulfonyl}-1-(4-isopropylbenzyl)-5-methoxy-2-methyltryptophan] here?
The inhibition at 1 µM was 67%.

How did the inhibition at 1 µM turn out when `CC#CCOc1ccc(S(=O)(=O)N[C@@H](Cc2cn(Cc3ccccc3C(F)(F)F)c3ccc(OC)cc23)C(=O)O)cc1` [Example 55, N-{[4-(but-2-ynyloxy)phenyl]sulfonyl}-5-methoxy-1-[2-(trifluoromethyl)benzyl]tryptophan] was run?
Its inhibition at 1 µM is 31.3%.

How did the inhibition at 1 µM turn out when `CC#CCOc1ccc(S(=O)(=O)N[C@@H](Cc2cn(Cc3ccc4c(c3)OCO4)c3ccc(C(=O)O)cc23)C(=O)O)cc1` [Example 124, 1-(1,3-benzodioxol-5-ylmethyl)-N-{[4-(but-2-ynyloxy)phenyl]sulfonyl}-5-carboxytryptophan] was run?
The inhibition at 1 µM was 10.2%.

For `CC#CCOc1ccc(S(=O)(=O)N[C@@H](Cc2cn(Cc3ccccc3OC)c3ccc(OC)cc23)C(=O)O)cc1` [Example 51, N-{[4-(but-2-ynyloxy)phenyl]sulfonyl}-5-methoxy-1-(2-methoxybenzyl)tryptophan], which inhibition at 1 µM is on record?
Its inhibition at 1 µM is 38.3%.

How did the inhibition at 1 µM turn out when `CC#CCOc1ccc(S(=O)(=O)N[C@@H](Cc2c(C)n(Cc3ccccc3F)c3ccccc23)C(=O)O)cc1` [Example 152, N-{[4-(but-2-ynyloxy)phenyl]sulfonyl}-1-(2-fluorobenzyl)-2-methyltryptophan] was run?
The inhibition at 1 µM was 51.7%.

With `CC#CCOc1ccc(S(=O)(=O)N[C@@H](Cc2cn(Cc3cccc(C)c3)c3ccc(OC)cc23)C(=O)O)cc1` [Example 50, N-{[4-(but-2-ynyloxy)phenyl]sulfonyl}-5-methoxy-1-(3-methylbenzyl)tryptophan] as the compound, how does the inhibition at 1 µM read?
Its inhibition at 1 µM is 30.6%.

With `CC#CCOc1ccc(S(=O)(=O)N[C@@H](Cc2c(C)n(Cc3cc(F)cc(F)c3)c3ccc(OC)cc23)C(=O)O)cc1` [Example 200, N-{[4-(but-2-ynyloxy)phenyl]sulfonyl}-1-(3,5-difluorobenzyl)-5-methoxy-2-methyltryptophan] as the compound, how does the inhibition at 1 µM read?
The inhibition at 1 µM was 80.5%.

How did the inhibition at 1 µM turn out when `CC#CCOc1ccc(S(=O)(=O)N[C@@H](Cc2c(C)n(Cc3ccc(OC(F)(F)F)cc3)c3ccc(Cl)cc23)C(=O)O)cc1` [Example 94, N-{[4-(but-2-ynyloxy)phenyl]sulfonyl}-5-chloro-2-methyl-1-[4-(trifluoromethoxy)benzyl]tryptophan] was run?
The inhibition at 1 µM was 47.4%.

With `CC#CCOc1ccc(S(=O)(=O)N[C@@H](Cc2c(C)n(Cc3cccc(F)c3)c3ccccc23)C(=O)O)cc1` [Example 153, N-{[4-(but-2-ynyloxy)phenyl]sulfonyl}-1-(3-fluorobenzyl)-2-methyltryptophan] as the compound, how does the inhibition at 1 µM read?
The inhibition at 1 µM was 55.9%.

How did the inhibition at 1 µM turn out when `CC#CCOc1ccc(S(=O)(=O)N[C@@H](Cc2cn(Cc3ccc(OC(F)(F)F)cc3)c3ccc(Cl)cc23)C(=O)O)cc1` [Example 78, N-{[4-(but-2-ynyloxy)phenyl]sulfonyl}-5-chloro-1-[4-(trifluoromethoxy)benzyl]tryptophan] was run?
Its inhibition at 1 µM is 7.39%.

Which inhibition at 1 µM does the source give for `CC#CCOc1ccc(S(=O)(=O)N[C@@H](Cc2c(C)n(Cc3ccccc3C)c3ccccc23)C(=O)O)cc1` [Example 145, N-{[4-(but-2-ynyloxy)phenyl]sulfonyl}-2-methyl-1-(2-methylbenzyl)tryptophan] here?
The inhibition at 1 µM was 49.5%.

With `CC#CCOc1ccc(S(=O)(=O)N[C@@H](Cc2cn(Cc3ccccc3C)c3ccc(Cl)cc23)C(=O)O)cc1` [Example 72, N-{[4-(but-2-ynyloxy)phenyl]sulfonyl}-5-chloro-1-(2-methylbenzyl)tryptophan] as the compound, how does the inhibition at 1 µM read?
The inhibition at 1 µM was 27.5%.

How did the inhibition at 1 µM turn out when `CC#CCOc1ccc(S(=O)(=O)N[C@@H](Cc2cn(Cc3ccc4c(c3)OCO4)c3ccc(Cl)cc23)C(=O)O)cc1` [Example 83, 1-(1,3-benzodioxol-5-ylmethyl)-N-{[4-(but-2-ynyloxy)phenyl]sulfonyl}-5-chlorotryptophan] was run?
The inhibition at 1 µM was 31.1%.

`CC#CCOc1ccc(S(=O)(=O)N[C@@H](Cc2c(C)n(CC3CCC3)c3ccc(OC)cc23)C(=O)O)cc1` [Example 212, N-{[4-(but-2-ynyloxy)phenyl]sulfonyl}-1-(cyclobutylmethyl)-5-methoxy-2-methyltryptophan] was tested. Which inhibition at 1 µM did it give?
Its inhibition at 1 µM is 59.5%.

`CC#CCOc1ccc(S(=O)(=O)N[C@@H](Cc2c(C)n(CC3CCCCC3)c3ccc(Cl)cc23)C(=O)O)cc1` [Example 102, N-{[4-(but-2-ynyloxy)phenyl]sulfonyl}-5-chloro-1-(cyclohexylmethyl)-2-methyltryptophan] was tested. Which inhibition at 1 µM did it give?
The inhibition at 1 µM was 56.9%.
